The values that follow come from patent US10028960B2, “Pyrimidine compounds as JAK kinase inhibitors” (THERAVANCE BIOPHARMA R&D IP, LLC, priority 2016, dated 2018).

For one assay, the target named is Tyk2 (Homo sapiens (Human), UniProt P29597). The assay is described as follows: LanthaScreen JAK biochemical assay, Tyk2. Here is the method: (§1) A panel of four LanthaScreen JAK biochemical assays (JAK1, 2, 3 and Tyk2) were carried in a common kinase reaction buffer (50 mM HEPES, pH 7.5, 0.01% Brij-35, 10 mM MgCl2, and 1 mM EGTA). Recombinant GST-tagged JAK enzymes and a GFP-tagged STAT1 peptide substrate were obtained from Life Technologies.
Chain of Tyk2 (P29597 whole entry): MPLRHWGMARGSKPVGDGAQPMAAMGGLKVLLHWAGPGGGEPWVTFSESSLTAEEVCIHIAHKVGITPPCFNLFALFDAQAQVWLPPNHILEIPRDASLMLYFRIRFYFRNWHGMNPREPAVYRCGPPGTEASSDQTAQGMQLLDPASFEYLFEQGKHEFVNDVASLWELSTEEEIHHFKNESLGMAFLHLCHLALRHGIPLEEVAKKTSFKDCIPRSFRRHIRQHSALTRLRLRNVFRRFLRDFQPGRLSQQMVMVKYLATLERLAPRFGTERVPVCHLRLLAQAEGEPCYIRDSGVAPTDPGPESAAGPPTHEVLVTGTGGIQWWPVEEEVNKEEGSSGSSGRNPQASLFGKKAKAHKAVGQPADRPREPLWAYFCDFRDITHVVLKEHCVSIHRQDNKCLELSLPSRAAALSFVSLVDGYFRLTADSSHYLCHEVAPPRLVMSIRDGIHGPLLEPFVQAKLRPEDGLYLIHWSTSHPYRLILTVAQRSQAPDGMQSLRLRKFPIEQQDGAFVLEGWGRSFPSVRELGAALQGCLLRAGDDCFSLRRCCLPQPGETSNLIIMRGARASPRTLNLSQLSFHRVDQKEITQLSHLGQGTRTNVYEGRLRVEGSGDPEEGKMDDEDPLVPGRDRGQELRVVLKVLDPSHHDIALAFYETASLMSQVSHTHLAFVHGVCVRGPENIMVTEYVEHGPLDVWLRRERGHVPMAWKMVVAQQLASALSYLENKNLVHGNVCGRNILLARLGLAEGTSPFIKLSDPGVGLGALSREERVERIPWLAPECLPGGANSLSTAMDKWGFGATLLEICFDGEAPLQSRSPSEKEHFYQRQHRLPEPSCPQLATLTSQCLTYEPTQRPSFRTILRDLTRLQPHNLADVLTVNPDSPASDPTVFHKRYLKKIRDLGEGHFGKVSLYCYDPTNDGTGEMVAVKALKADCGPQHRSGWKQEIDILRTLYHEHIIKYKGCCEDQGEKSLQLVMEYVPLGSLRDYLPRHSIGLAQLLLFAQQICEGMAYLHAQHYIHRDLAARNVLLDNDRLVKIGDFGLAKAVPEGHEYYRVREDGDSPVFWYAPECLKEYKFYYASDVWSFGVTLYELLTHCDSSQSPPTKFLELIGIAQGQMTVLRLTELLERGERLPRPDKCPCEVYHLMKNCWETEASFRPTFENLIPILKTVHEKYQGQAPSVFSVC
For orientation: Time-resolved FRET reads energy transfer from a long-lived donor to a nearby acceptor.

The next assay concerns the target JAK1 (Homo sapiens (Human), UniProt P23458). The assay can be described thus: LanthaScreen JAK biochemical assay, JAK1. Here is the method: as §1
For a further assay, the target named is JAK2 (Homo sapiens (Human), UniProt O60674). The assay is described as follows: LanthaScreen JAK biochemical assay, JAK2. Here is the method: as §1
Chain of JAK2 (O60674 whole entry): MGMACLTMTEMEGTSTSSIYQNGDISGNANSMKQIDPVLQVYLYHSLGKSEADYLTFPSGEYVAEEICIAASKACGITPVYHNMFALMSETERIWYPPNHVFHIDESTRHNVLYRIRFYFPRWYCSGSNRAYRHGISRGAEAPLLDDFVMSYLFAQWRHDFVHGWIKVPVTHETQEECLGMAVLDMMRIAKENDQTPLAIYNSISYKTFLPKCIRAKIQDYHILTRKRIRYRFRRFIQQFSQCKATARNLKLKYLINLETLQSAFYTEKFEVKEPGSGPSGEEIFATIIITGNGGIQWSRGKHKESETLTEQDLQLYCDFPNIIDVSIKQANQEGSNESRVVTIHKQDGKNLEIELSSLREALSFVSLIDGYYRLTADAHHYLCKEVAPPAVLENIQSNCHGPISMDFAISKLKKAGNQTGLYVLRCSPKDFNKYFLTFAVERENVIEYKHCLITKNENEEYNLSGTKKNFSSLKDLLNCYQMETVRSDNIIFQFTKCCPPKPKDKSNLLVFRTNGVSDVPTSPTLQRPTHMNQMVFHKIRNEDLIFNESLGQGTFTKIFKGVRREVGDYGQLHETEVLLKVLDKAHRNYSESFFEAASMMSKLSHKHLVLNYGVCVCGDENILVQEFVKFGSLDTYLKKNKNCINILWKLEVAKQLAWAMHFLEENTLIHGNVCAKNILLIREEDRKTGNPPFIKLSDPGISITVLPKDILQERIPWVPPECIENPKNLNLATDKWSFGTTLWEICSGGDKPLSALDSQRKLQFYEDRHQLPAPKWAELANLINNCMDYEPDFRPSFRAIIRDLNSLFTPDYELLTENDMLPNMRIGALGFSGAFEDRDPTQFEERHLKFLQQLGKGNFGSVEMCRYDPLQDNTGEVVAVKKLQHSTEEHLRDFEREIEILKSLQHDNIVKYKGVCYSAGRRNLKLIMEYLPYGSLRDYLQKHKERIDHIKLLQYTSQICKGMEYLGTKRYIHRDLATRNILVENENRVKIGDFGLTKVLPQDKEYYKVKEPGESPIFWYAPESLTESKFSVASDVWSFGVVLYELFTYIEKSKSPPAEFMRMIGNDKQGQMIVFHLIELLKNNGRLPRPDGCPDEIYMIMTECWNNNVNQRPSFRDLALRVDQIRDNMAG
In a further assay the target is JAK3 (Homo sapiens (Human), UniProt P52333). The assay can be described thus: LanthaScreen JAK biochemical assay, JAK3. Here is the method:
as §1

Assay [1] has as its system IL-13 induced STAT6 phosphorylation in HT-29 human colorectal adenocarcinoma cells. The assay is described as follows: Cellular JAK potency assay: inhibition of IL-13 induced STAT6 phosphorylation. It counts as cell-based. Particulars: IL-13 induced STAT6 phosphorylation, HT-29 cells. Here is the method: The potency of test compounds for inhibition of the JAK-dependent cytokine interleuken-13 (IL-13) was assessed by measuring IL-13 (IL-13, R&D Systems) induced STAT6 phosphorylation in HT-29 human colorectal adenocarcinoma cells (ATCC).
The anti-STAT6 antibody (Cell Signaling Technologies) was conjugated to AlphaScreen acceptor beads (Perkin Elmer), while the anti-pSTAT6 (pTyr641) antibody (Cell Signaling Technologies) was biotinylated using EZ-Link Sulfo-NHS-Biotin (Thermo Scientific).
HT-29 cells were grown at 37° C. in a 5% CO2 humidified incubator in McCoy's 5a Modified medium (ATCC) supplemented with 10% FBS (Hyclone), 100 U/mL penicillin, 100 μg/mL streptomycin (Life Technologies), and 2 mM GlutaMAX (Life Technologies). On day 1 of the assay, cells were seeded at a 7,500 cells/well density in white poly-D-lysine-coated 384-well plates (Corning) with 25 μL medium, and were allowed to adhere overnight in the incubator. On day 2 of the assay, the medium was removed and replaced with 12 μL of assay buffer (Hank's Balanced Salt Solution/HBSS, 25 mM HEPES, and 1 mg/ml bovine serum albumin/BSA) containing dose-responses of test compounds. Compounds were serially diluted in DMSO and then diluted another 1000-fold in media to bring the final DMSO concentration to 0.1%. Cells were incubated with test compounds at 37° C. for 1 h, and followed by the addition of 12 μL of pre-warmed IL-13 (12 ng/ml in assay buffer) for stimulation. After incubating at 37° C. for 30 min, the assay buffer (containing compound and IL-13) was removed, and 10 μL of cell lysis buffer (25 mM HEPES, 0.1% SDS, 1% NP-40, 5 mM MgCl2, 1.3 mM EDTA, 1 mM EGTA, and supplement with Complete Ultra mini protease inhibitors and PhosSTOP from Roche Diagnostics). The plates were shaken at ambient temperature for 30 min before the addition of detection reagents. A mixture of biotin-anti-pSTAT6 and anti-STAT6 conjugated acceptor beads was added first and incubated at ambient temperature for 2 h, followed by the addition of streptavidin conjugated donor beads (Perkin Elmer). After a minimum of 2 h incubation, the assay plates were read on the EnVision plate reader.
Results were expressed as the negative logarithm of the IC50 value, pIC50.

Chain of JAK1 (P23458 whole entry): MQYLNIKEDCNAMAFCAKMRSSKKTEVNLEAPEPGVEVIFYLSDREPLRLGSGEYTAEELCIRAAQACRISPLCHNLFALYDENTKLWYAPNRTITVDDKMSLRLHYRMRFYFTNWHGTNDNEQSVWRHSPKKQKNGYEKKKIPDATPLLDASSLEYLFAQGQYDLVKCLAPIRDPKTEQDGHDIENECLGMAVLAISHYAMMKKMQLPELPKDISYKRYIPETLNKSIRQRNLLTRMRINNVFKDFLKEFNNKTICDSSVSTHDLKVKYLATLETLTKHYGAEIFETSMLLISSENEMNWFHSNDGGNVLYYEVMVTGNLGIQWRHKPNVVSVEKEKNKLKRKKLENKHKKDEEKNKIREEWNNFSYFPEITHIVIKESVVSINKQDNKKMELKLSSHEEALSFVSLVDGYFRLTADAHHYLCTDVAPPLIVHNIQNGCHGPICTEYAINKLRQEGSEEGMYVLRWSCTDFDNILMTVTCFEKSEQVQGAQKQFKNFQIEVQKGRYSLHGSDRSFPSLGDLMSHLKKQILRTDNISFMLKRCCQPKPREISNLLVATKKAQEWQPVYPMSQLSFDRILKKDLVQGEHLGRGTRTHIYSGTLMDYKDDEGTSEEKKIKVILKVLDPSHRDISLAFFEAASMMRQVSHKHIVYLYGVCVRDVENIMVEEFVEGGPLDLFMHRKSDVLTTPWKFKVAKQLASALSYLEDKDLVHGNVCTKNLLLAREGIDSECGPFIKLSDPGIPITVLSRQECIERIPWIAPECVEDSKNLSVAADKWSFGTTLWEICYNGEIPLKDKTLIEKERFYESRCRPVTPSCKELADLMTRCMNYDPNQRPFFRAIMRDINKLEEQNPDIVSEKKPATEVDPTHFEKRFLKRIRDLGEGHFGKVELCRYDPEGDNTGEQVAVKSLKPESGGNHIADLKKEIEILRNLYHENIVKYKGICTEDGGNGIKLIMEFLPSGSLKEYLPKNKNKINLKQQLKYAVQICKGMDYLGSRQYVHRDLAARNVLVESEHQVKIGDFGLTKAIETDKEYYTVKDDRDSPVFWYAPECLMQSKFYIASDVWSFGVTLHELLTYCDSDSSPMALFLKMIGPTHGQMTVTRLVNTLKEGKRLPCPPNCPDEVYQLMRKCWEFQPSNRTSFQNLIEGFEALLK
Chain of JAK3 (P52333 whole entry): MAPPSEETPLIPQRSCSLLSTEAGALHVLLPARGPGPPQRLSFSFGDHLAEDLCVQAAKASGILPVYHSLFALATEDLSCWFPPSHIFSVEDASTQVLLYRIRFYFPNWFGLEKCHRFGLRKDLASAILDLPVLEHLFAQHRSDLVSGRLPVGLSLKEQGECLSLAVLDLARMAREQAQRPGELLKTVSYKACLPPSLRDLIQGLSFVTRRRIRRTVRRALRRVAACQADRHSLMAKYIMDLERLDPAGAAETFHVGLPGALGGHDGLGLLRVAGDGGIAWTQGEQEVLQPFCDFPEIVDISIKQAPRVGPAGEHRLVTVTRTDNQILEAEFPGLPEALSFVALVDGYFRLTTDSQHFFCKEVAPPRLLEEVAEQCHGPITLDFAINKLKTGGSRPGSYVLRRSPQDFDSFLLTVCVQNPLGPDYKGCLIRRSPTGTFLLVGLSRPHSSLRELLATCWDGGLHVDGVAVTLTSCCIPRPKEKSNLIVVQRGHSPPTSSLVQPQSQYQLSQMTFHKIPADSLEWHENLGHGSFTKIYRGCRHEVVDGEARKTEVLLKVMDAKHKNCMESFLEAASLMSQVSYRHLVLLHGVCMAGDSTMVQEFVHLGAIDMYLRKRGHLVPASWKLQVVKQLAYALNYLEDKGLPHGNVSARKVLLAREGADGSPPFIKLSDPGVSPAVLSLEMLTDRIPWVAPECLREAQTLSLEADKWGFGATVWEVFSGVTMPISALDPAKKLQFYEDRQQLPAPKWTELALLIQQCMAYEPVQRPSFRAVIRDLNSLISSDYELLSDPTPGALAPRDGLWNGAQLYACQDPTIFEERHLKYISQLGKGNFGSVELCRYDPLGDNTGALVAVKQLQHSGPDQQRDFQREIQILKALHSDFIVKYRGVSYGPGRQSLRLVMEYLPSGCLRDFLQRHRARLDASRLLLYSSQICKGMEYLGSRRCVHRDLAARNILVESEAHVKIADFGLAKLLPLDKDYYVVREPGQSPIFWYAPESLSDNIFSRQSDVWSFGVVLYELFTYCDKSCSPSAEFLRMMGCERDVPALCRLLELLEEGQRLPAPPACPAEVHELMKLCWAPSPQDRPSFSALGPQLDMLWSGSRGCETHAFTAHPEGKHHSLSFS

Regarding `COC(=O)N1[C@@H]2CCC[C@H]1C[C@H](N(C)c1nc(Nc3cc(CO)[nH]n3)cc(OC)n1)C2` [Example 3-3, methyl (1R,3s,5S)-3-((4-((5-(hydroxymethyl)-1H-pyrazol-3-yl)amino)-6-methoxypyrimidin-2-yl)(methyl)amino)-9-azabicyclo[3.3.1]nonane-9-carboxylate], the “Tyk 2 (pKi)” value at Tyk2 is “C (C represents a pKi value between 8 and 9 (Ki between 10 nM and 1 nM))”. On JAK1, the “JAK 1 (pKi)” value is “B (B represents a pKi value between 9 and 10 (Ki between 1 nM and 0.1 nM))”. In addition, the “JAK 2 (pKi)” value at JAK2 is “B (B represents a pKi value between 9 and 10 (Ki between 1 nM and 0.1 nM))”.

Turning to `COc1cc(Nc2cc(CO)[nH]n2)nc(N(C)[C@@H]2C[C@H]3CCC[C@@H](C2)N3C(=O)OCC(C)C)n1` [Example 3-2, isobutyl (1R,3s,5S)-3-((4-((5-(hydroxymethyl)-1H-pyrazol-3-yl)amino)-6-methoxypyrimidin-2-yl)(methyl)amino)-9-azabicyclo[3.3.1]nonane-9-carboxylate], the “Tyk 2 (pKi)” value on Tyk2 was “B (B represents a pKi value between 9 and 10 (Ki between 1 nM and 0.1 nM))”. Moreover, the “JAK 1 (pKi)” value on JAK1 was “B (B represents a pKi value between 9 and 10 (Ki between 1 nM and 0.1 nM))”. Besides, at JAK2, the “JAK 2 (pKi)” value is “B (B represents a pKi value between 9 and 10 (Ki between 1 nM and 0.1 nM))”.

`COc1cc(Nc2cc(CO)[nH]n2)nc(N(C)[C@@H]2C[C@H]3CCC[C@@H](C2)N3CC2(C#N)CC2)n1` [Example 2-6, 1-(((1R,3s,5S)-3-((4-((5-(hydroxymethyl)-1H-pyrazol-3-yl)amino)-6-methoxypyrimidin-2-yl)(methyl)amino)-9-azabicyclo[3.3.1]nonan-9-yl)methyl)cyclopropane-1-carbonitrile]: the “Tyk 2 (pKi)” value at Tyk2 was “B (B represents a pKi value between 9 and 10 (Ki between 1 nM and 0.1 nM))”. The “JAK 3 (pKi)” value on JAK3 was “C (C represents a pKi value between 8 and 9 (Ki between 10 nM and 1 nM))”. Besides, the “JAK 1 (pKi)” value on JAK1 was “B (B represents a pKi value between 9 and 10 (Ki between 1 nM and 0.1 nM))”. Besides, at JAK2, the “JAK 2 (pKi)” value is “B (B represents a pKi value between 9 and 10 (Ki between 1 nM and 0.1 nM))”.

`COc1cc(Nc2cc(CO)[nH]n2)nc(N(C)[C@@H]2C[C@H]3CCC[C@@H](C2)N3C(=O)CC2CC2)n1` [Example 3-5, 2-cyclopropyl-1-((1R,3s,5S)-3-((4-((5-(hydroxymethyl)-1H-pyrazol-3-yl)amino)-6-methoxypyrimidin-2-yl)(methyl)amino)-9-azabicyclo[3.3.1]nonan-9-yl)ethan-1-one]: on Tyk2, the “Tyk 2 (pKi)” value was “B (B represents a pKi value between 9 and 10 (Ki between 1 nM and 0.1 nM))”. Further, at JAK1, the “JAK 1 (pKi)” value is “B (B represents a pKi value between 9 and 10 (Ki between 1 nM and 0.1 nM))”. For the same molecule, the “JAK 2 (pKi)” value at JAK2 is “B (B represents a pKi value between 9 and 10 (Ki between 1 nM and 0.1 nM))”.

With `COc1cc(Nc2cc(CO)[nH]n2)nc(N(C)[C@@H]2C[C@H]3CCC[C@@H](C2)N3C(=O)N2CCOCC2)n1` [Example 3-4, ((1R,3s,5S)-3-((4-((5-(hydroxymethyl)-1H-pyrazol-3-yl)amino)-6-methoxy-pyrimidin-2-yl)(methyl)amino)-9-azabicyclo[3.3.1]nonan-9-yl)(morpholino)methanone], the “Tyk 2 (pKi)” value on Tyk2 was “B (B represents a pKi value between 9 and 10 (Ki between 1 nM and 0.1 nM))”. Moreover, the “JAK 1 (pKi)” value on JAK1 was “B (B represents a pKi value between 9 and 10 (Ki between 1 nM and 0.1 nM))”. For the same molecule, at JAK2, the “JAK 2 (pKi)” value was “B (B represents a pKi value between 9 and 10 (Ki between 1 nM and 0.1 nM))”.

As to `COc1cc(Nc2cc(CO)[nH]n2)nc(N(C)[C@@H]2C[C@H]3CCC[C@@H](C2)N3C(=O)C2CCCC2)n1` [Example 3-7, cyclopentyl((1R,3s,5S)-3-((4-((5-(hydroxymethyl)-1H-pyrazol-3-yl)amino)-6-methoxypyrimidin-2-yl)(methyl)amino)-9-azabicyclo[3.3.1]nonan-9-yl)methanone], at Tyk2, the “Tyk 2 (pKi)” value is “B (B represents a pKi value between 9 and 10 (Ki between 1 nM and 0.1 nM))”. The “JAK 1 (pKi)” value at JAK1 was “B (B represents a pKi value between 9 and 10 (Ki between 1 nM and 0.1 nM))”. In addition, the “JAK 2 (pKi)” value at JAK2 was “B (B represents a pKi value between 9 and 10 (Ki between 1 nM and 0.1 nM))”.

For `COc1cc(Nc2cc(CO)[nH]n2)nc(N(C)[C@@H]2C[C@H]3CCC[C@@H](C2)N3C(=O)C2CCC2)n1` [Example 3-8, cyclobutyl((1R,3s,5S)-3-((4-((5-(hydroxymethyl)-1H-pyrazol-3-yl)amino)-6-methoxypyrimidin-2-yl)(methyl)amino)-9-azabicyclo[3.3.1]nonan-9-yl)methanone], the “Tyk 2 (pKi)” value on Tyk2 was “B (B represents a pKi value between 9 and 10 (Ki between 1 nM and 0.1 nM))”. For the same molecule, on JAK1, the “JAK 1 (pKi)” value is “B (B represents a pKi value between 9 and 10 (Ki between 1 nM and 0.1 nM))”. In addition, the “JAK 2 (pKi)” value on JAK2 was “B (B represents a pKi value between 9 and 10 (Ki between 1 nM and 0.1 nM))”.

Regarding `COc1cc(Nc2cc(CO)[nH]n2)nc(N[C@@H]2C[C@H]3CCC[C@@H](C2)N3S(=O)(=O)c2cccnc2)n1` [Example 1-11, (3-((6-methoxy-2-(((1R,3s,5S)-9-(pyridin-3-ylsulfonyl)-9-azabicyclo[3.3.1]nonan-3-yl)amino)pyrimidin-4-yl)amino)-1H-pyrazol-5-yl)methanol], in assay [1], the “HT-29 (pIC50)” value was “B (B represents a pIC50 value between 6.7 and 7.5 (IC50 between 200 nM and 32 nM))”. For the same molecule, on JAK1, the “JAK 1 (pKi)” value was “B (B represents a pKi value between 9 and 10 (Ki between 1 nM and 0.1 nM))”.

As for `COc1cc(Nc2cc(CO)[nH]n2)nc(N(C)[C@@H]2C[C@H]3CCC[C@@H](C2)N3Cc2ccncc2)n1` [Example 2-7, (3-((6-methoxy-2-(methyl((1R,3s,5S)-9-(pyridin-4-ylmethyl)-9-azabicyclo[3.3.1]nonan-3-yl)amino)pyrimidin-4-yl)amino)-1H-pyrazol-5-yl)methanol], the “HT-29 (pIC50)” value in assay [1] was “B (B represents a pIC50 value between 6.7 and 7.5 (IC50 between 200 nM and 32 nM))”. Further, on JAK1, the “JAK 1 (pKi)” value was “B (B represents a pKi value between 9 and 10 (Ki between 1 nM and 0.1 nM))”.

With `CCS(=O)(=O)N1[C@@H]2CCC[C@H]1C[C@H](Nc1nc(Nc3cc(CO)[nH]n3)cc(OC)n1)C2` [Example 1-9, (3-((2-(((1R,3s,5S)-9-(ethylsulfonyl)-9-azabicyclo[3.3.1]nonan-3-yl)amino)-6-methoxypyrimidin-4-yl)amino)-1H-pyrazol-5-yl)methanol], the “HT-29 (pIC50)” value in assay [1] is “B (B represents a pIC50 value between 6.7 and 7.5 (IC50 between 200 nM and 32 nM))”. Further, the “JAK 1 (pKi)” value on JAK1 was “B (B represents a pKi value between 9 and 10 (Ki between 1 nM and 0.1 nM))”.

Take `COc1cc(Nc2cc(CO)[nH]n2)nc(N(C)[C@@H]2C[C@H]3CCC[C@@H](C2)N3C(C)=O)n1` [Example 3-6]: on Tyk2, the “Tyk 2 (pKi)” value was “C (C represents a pKi value between 8 and 9 (Ki between 10 nM and 1 nM))”. Moreover, the “JAK 1 (pKi)” value on JAK1 was “B (B represents a pKi value between 9 and 10 (Ki between 1 nM and 0.1 nM))”. Also, the “JAK 2 (pKi)” value on JAK2 was “B (B represents a pKi value between 9 and 10 (Ki between 1 nM and 0.1 nM))”.
